Data published in patent US20130157954A1, “METHODS FOR TREATMENT OR PROPHYLAXIS OF KIDNEY OR LIVER DYSFUNCTION” (NPS PHARMACEUTICALS, INC., priority 2010, published 2013).

Test: Example 1: kidney biomarkers (urea nitrogen, creatinine, GFR) in short bowel syndrome patients, every four weeks for 24 weeks; also sorted by >5% change from baseline
Type: in vivo, Human
Conditions: for CREATININE (RATE BLANKED) change from baseline −5% <= and <=5%, number of patients / CREATININE (RATE BLANKED) change from baseline −5% <= and <=5%, percent of patients / GFR change from baseline <−5%, number of patients / GFR change from baseline <−5%, percent of patients / GFR change from baseline >5%, number of patients / GFR change from baseline >5%, percent of patients / GFR change from baseline −5% <= and <=5%, number of patients / GFR change from baseline −5% <= and <=5%, percent of patients / UREA NITROGEN change from baseline <−5%, number of patients / UREA NITROGEN change from baseline <−5%, percent of patients / UREA NITROGEN change from baseline >5%, number of patients / UREA NITROGEN change from baseline >5%, percent of patients / UREA NITROGEN change from baseline −5% <= and <=5%, number of patients / UREA NITROGEN change from baseline −5% <= and <=5%, percent of patients / CREATININE (RATE BLANKED) change from baseline <−5%, number of patients / CREATININE (RATE BLANKED) change from baseline <−5%, percent of patients / CREATININE (RATE BLANKED) change from baseline >5%, number of patients / CREATININE (RATE BLANKED) change from baseline >5%, percent of patients: 0.1 mg/kg/day
Protocol: Human patients with short bowel syndrome were divided into three groups: a control group (16 total individuals) to receive placebo, an experimental group (35 total individuals) to receive teduglutide at 0.05 mg/kg/day throughout the study, and an experimental group (32 total individuals) to receive teduglutide at 0.1 mg/kg/day throughout the study. Patients were treated by subcutaneous injection of placebo or the appropriate dose of teduglutide. As individuals with short bowel syndrome are likely to experience associated liver and kidney disease, known biomarkers of liver and kidney function were monitored every four weeks, for 24 weeks. The liver biomarkers tested included total bilirubin, ALT and AST and ALP. The kidney biomarkers tested included urea nitrogen, creatinine and GFR. Before administration of placebo or teduglutide, diagnostic biomarker levels were tested to establish a baseline for each individual.
To visualize the effect of GLP-2 on the levels of the diagnostic biomarkers, the average change from baseline was calculated for the placebo and teduglutide treated groups for each visit after a baseline was established. The average change from baseline of each group is depicted in FIGS. 1-7. The numerical figures for each diagnostic biomarker at each time point are depicted in Table 1.
The raw data for this sorting is reproduced in Table 2 below.

CC[C@H](C)[C@H](NC(=O)[C@H](Cc1ccccc1)NC(=O)[C@H](CC(=O)O)NC(=O)[C@H](CCCNC(=N)N)NC(=O)[C@H](C)NC(=O)[C@H](C)NC(=O)[C@H](CC(C)C)NC(=O)[C@H](CC(N)=O)NC(=O)[C@H](CC(=O)O)NC(=O)[C@H](CC(C)C)NC(=O)[C@@H](NC(=O)[C@@H](NC(=O)[C@H](CC(N)=O)NC(=O)[C@H](CCSC)NC(=O)[C@H](CCC(=O)O)NC(=O)[C@H](CC(=O)O)NC(=O)[C@H](CO)NC(=O)[C@H](Cc1ccccc1)NC(=O)[C@H](CO)NC(=O)CNC(=O)[C@H](CC(=O)O)NC(=O)CNC(=O)[C@@H](N)Cc1c[nH]cn1)[C@@H](C)O)[C@@H](C)CC)C(=O)N[C@@H](CC(N)=O)C(=O)N[C@@H](Cc1c[nH]c2ccccc12)C(=O)N[C@@H](CC(C)C)C(=O)N[C@H](C(=O)N[C@@H](CCC(N)=O)C(=O)N[C@H](C(=O)N[C@@H](CCCCN)C(=O)N[C@H](C(=O)N[C@H](C(=O)N[C@@H](CC(=O)O)C(=O)O)[C@@H](C)O)[C@@H](C)CC)[C@@H](C)O)[C@@H](C)CC [teduglutide]
CREATININE (RATE BLANKED) change from baseline −5% <= and <=5%, number of patients (week 12): 4
CREATININE (RATE BLANKED) change from baseline −5% <= and <=5%, percent of patients (week 12): (12.5%)
GFR change from baseline <−5%, number of patients (week 12): 11
GFR change from baseline <−5%, percent of patients (week 12): (34.4%)
GFR change from baseline >5%, number of patients (week 12): 9
GFR change from baseline >5%, percent of patients (week 12): (28.1%)
GFR change from baseline −5% <= and <=5%, number of patients (week 12): 10
GFR change from baseline −5% <= and <=5%, percent of patients (week 12): (31.3%)
UREA NITROGEN change from baseline <−5%, number of patients (week 12): 13
UREA NITROGEN change from baseline <−5%, percent of patients (week 12): (40.6%)
UREA NITROGEN change from baseline >5%, number of patients (week 12): 14
UREA NITROGEN change from baseline >5%, percent of patients (week 12): (43.8%)
UREA NITROGEN change from baseline −5% <= and <=5%, number of patients (week 12): 3
UREA NITROGEN change from baseline −5% <= and <=5%, percent of patients (week 12): (9.4%)
CREATININE (RATE BLANKED) change from baseline <−5%, number of patients (week 16): 10
CREATININE (RATE BLANKED) change from baseline <−5%, percent of patients (week 16): (31.3%)
CREATININE (RATE BLANKED) change from baseline >5%, number of patients (week 16): 12
CREATININE (RATE BLANKED) change from baseline >5%, percent of patients (week 16): (37.5%)
CREATININE (RATE BLANKED) change from baseline −5% <= and <=5%, number of patients (week 16): 8
CREATININE (RATE BLANKED) change from baseline −5% <= and <=5%, percent of patients (week 16): (25.0%)
GFR change from baseline <−5%, number of patients (week 16): 12
GFR change from baseline <−5%, percent of patients (week 16): (37.5%)
GFR change from baseline >5%, number of patients (week 16): 12
GFR change from baseline >5%, percent of patients (week 16): (37.5%)
GFR change from baseline −5% <= and <=5%, number of patients (week 16): 6
GFR change from baseline −5% <= and <=5%, percent of patients (week 16): (18.8%)
UREA NITROGEN change from baseline <−5%, number of patients (week 16): 9
UREA NITROGEN change from baseline <−5%, percent of patients (week 16): (28.1%)
UREA NITROGEN change from baseline >5%, number of patients (week 16): 9
UREA NITROGEN change from baseline >5%, percent of patients (week 16): (28.1%)
UREA NITROGEN change from baseline −5% <= and <=5%, number of patients (week 16): 12
UREA NITROGEN change from baseline −5% <= and <=5%, percent of patients (week 16): (37.5%)
CREATININE (RATE BLANKED) change from baseline <−5%, number of patients (week 20): 7
CREATININE (RATE BLANKED) change from baseline <−5%, percent of patients (week 20): (21.9%)
CREATININE (RATE BLANKED) change from baseline >5%, number of patients (week 20): 13
CREATININE (RATE BLANKED) change from baseline >5%, percent of patients (week 20): (40.6%)
CREATININE (RATE BLANKED) change from baseline −5% <= and <=5%, number of patients (week 20): 9
CREATININE (RATE BLANKED) change from baseline −5% <= and <=5%, percent of patients (week 20): (28.1%)
GFR change from baseline <−5%, number of patients (week 20): 11
GFR change from baseline <−5%, percent of patients (week 20): (34.4%)
GFR change from baseline >5%, number of patients (week 20): 8
GFR change from baseline >5%, percent of patients (week 20): (25.0%)
GFR change from baseline −5% <= and <=5%, number of patients (week 20): 10
GFR change from baseline −5% <= and <=5%, percent of patients (week 20): (31.3%)
UREA NITROGEN change from baseline <−5%, number of patients (week 20): 12
UREA NITROGEN change from baseline <−5%, percent of patients (week 20): (37.5%)
UREA NITROGEN change from baseline >5%, number of patients (week 20): 11
UREA NITROGEN change from baseline >5%, percent of patients (week 20): (34.4%)
UREA NITROGEN change from baseline −5% <= and <=5%, number of patients (week 20): 6
UREA NITROGEN change from baseline −5% <= and <=5%, percent of patients (week 20): (18.8%)
CREATININE (RATE BLANKED) change from baseline <−5%, number of patients (week 24): 11
CREATININE (RATE BLANKED) change from baseline <−5%, percent of patients (week 24): (34.4%)
CREATININE (RATE BLANKED) change from baseline >5%, number of patients (week 24): 9
CREATININE (RATE BLANKED) change from baseline >5%, percent of patients (week 24): (28.1%)
CREATININE (RATE BLANKED) change from baseline −5% <= and <=5%, number of patients (week 24): 9
CREATININE (RATE BLANKED) change from baseline −5% <= and <=5%, percent of patients (week 24): (28.1%)
GFR change from baseline <−5%, number of patients (week 24): 6
GFR change from baseline <−5%, percent of patients (week 24): (18.8%)
GFR change from baseline >5%, number of patients (week 24): 14
GFR change from baseline >5%, percent of patients (week 24): (43.8%)
GFR change from baseline −5% <= and <=5%, number of patients (week 24): 9
GFR change from baseline −5% <= and <=5%, percent of patients (week 24): (28.1%)
UREA NITROGEN change from baseline <−5%, number of patients (week 24): 14
UREA NITROGEN change from baseline <−5%, percent of patients (week 24): (43.8%)
UREA NITROGEN change from baseline >5%, number of patients (week 24): 13
UREA NITROGEN change from baseline >5%, percent of patients (week 24): (40.6%)
UREA NITROGEN change from baseline −5% <= and <=5%, number of patients (week 24): 2
UREA NITROGEN change from baseline −5% <= and <=5%, percent of patients (week 24): (6.3%)
percent of the group experiencing a decrease in GFR greater than 5% vs placebo (both groups receiving teduglutide): always less than the percent of the group receiving placebo
creatinine levels, average change versus baseline (FIG. 9) (groups receiving teduglutide, placebo increased): remained stable or decreased slightly
